“Also recorded” adds a separate entry of the source. Read-outs that look alike come from different tables or passages of the source.

For test [1], the target named is T1, natural suppressor cells (Mus musculus, UniProt P97292).
T1 construct: cAMP accumulation
In words: Blocking histamine effects in natural suppressor cells (H2 antagonism). In kind it is cell-based, mouse (BALB/c). To be noted: for Blockade of histamine mediated accumulation of cAMP: NS cells. On the procedure:
This assay was carried out in the same fashion as already described for the derivatives except that ED-90 concentration of the test compound was chosen. Cimetidine was added at the same time in concentrations ranging from 10^-4 to 10^-8 M. Alternatively, 10^-6 M cimetidine was added to 10^-3 -10^-8 M concentration of agonists.

The test system of test [2] is natural suppressor cells. Put plainly: Mixed leukocyte reaction (MLR) suppressor assay. It is filed as cell-based, mouse (BALB/c, C57 BL/6). On the procedure: Responder (BALB/c) and stimulator (C57 BL/6) spleen cells (5×10^5each) were incubated with graded numbers of NS cells in 0.3 ml/well in 96-well flat bottomed microculture plates (Costar, Data Packaging, Cambridge, MA). The culture medium was supplemented with 100 U/ml penicillin, 100 ug/ml of streptomycin (both GIBCO, Grand Island, NY), and 10=pooled human serum (VSP human serum, Biocell Laboratories, Carson CA). Co-cultured cells and stimulator cells were given 3300 rad before incubation. Cultures were maintained at 37° C. in 5% CO2 for 5 or 6 days. Eighteen hr before termination, 1 μCi of ^3 H!-thymidine (specific activity […]) (New England Nuclear, Boston, MA) was added to each culture. Cells were harvested as described above. The data were expressed as the arithmetic mean of triplicate cultures. Suppression was calculated as follows: percent suppression=1-(CPM with co-cultured cells)/(CPM without co-cultured cells)×100. […] To block the effects of agonists, […] cimetidine was used as an H2 antagonist and 10^-6 M mepyramine was used as an H1 antagonist.
CO-cultured and stimulator cells were given 3300 rad in vitro just prior to incubation. […] See, Khan et al., J. Immunol. (1985) 134:4100. […] To determine the role of H1 and H2 receptors in the modification of NS cell function, the incubation with compound 10 was carried out in the presence of either cimetidine (10^-5 M) or mepyramine (10^-6 M) for four hours at 37° C. The cells were then washed extensively and later added to co-cultures with responder and stimulator cells. […] Similar experiments were carried out with each of the indicated agonists (Table 5).

The target in test [3] is T1, natural suppressor cells. Put plainly: Effects of histamine derivatives on cAMP accumulation in natural suppressor (NS) cells. In kind it is cell-based, mouse (BALB/c). The note with it: for Relative potency: NS cells, histamine = 1.0; for Activity / potency on NS cells (in words): cAMP accumulation, H2 activity. The source says:
NS cells were obtained and cultured as follows: four-to six-month old BALB/c mice were anesthetized with pentobarbital and all major lymphoid organs, including all major lymph nodes, the spleen, and the thymus, were irradiated as described by Slavin et al., Science (1976) 193:1252. The skull, lungs, and hind legs were shielded with lead. The mice were given 200 rad per day, 5 times per week, to a total dose of 3400 rad. Irradiation was delivered from a single 250 kV (15A) source (Philips Medical Systems, Inc., Shelton, CT). The mice were killed between 5 and 15 days after completion of the TLI. Spleens were removed aseptically and single cell suspensions were prepared by gently pressing the spleen fragments through a nylon fiber mesh (Tetko, Inc., Elmsford, NY). These spleen cells were fed daily with tissue culture medium containing RPMI 1640, 10% FCS, 2 mM glutamine, 10% CAS and 5×10^-5 M 2-mercaptoethanol and were later cloned by limiting dilutior, The clones were maintained in RPMI 1640 medium with 10% PCS and 10% CAS.
NS cells were centrifuged and resuspended at b 1×10^6 /ml in PBS and incubated at 37° C. for 10 min with 10 mM IBMX at a final concentration at 20 μM. Alternatively the cells were resuspended in 5 mM HEPES and 1 mM MgSO4 and after five minutes were disrupted in a Dounce homogenizer. Broken cells were centrifuged at 20,000 g […] for thirty minutes and supernatant was discarded. The pellet was resuspended in Tris (pH 7.5), 5 mM HEPES and 1 mM MgSO4 and incubated with IBMX.
Cold TCA (100%) was added to a final concentration of 8% and the tubes were stored in ice. Samples were extracted 3 times with 3 volumes of ether. The ether was evaporated at 40° C. in a water bath for approximately 45 min. Acetylation of both experimental samples and cAMP standards were performed by addition of 10 μl of a mixture of triethylamine and acetic anhydride (2:1). […] The radio-immunoassay was performed as reported previously by Khan et al., J. Clin. Invest. (1985) 75:1578.
In general terms: Cyclic AMP is a second messenger, typically raised through Gs and lowered through Gi signalling.

The target in test [4] is T2, guinea pig myocardial adenylate cyclase (Cavia porcellus, UniProt P47747).
T2 construct: histamine-stimulated adenylate cyclase with GPP(NH)P
T2 sequence (P47747 whole entry): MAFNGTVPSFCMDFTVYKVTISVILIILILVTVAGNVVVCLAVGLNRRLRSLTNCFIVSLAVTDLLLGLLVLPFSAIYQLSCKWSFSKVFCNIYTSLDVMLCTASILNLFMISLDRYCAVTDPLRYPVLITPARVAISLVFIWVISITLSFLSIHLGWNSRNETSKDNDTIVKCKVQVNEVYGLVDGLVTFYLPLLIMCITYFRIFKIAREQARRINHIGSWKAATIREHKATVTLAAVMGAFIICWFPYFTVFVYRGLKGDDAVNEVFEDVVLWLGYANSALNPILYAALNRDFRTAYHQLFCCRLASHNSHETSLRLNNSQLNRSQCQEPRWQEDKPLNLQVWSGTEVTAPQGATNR
In words: Guinea pig myocardial adenylate cyclase assay. In kind it is biochemical. The note with it: for Activity on guinea pig myocardium (in words): adenylate cyclase. On the procedure: Male, partly albino, guinea pigs (600 g average weight) were killed by a blow to the head. The hearts were excised and immediately immersed in ice cold oxygenated Tyrode's solution. Both ventricles were dissected free and placed in 250 mM sucrose, 5 mM Tris, 1 mM EDTA, pH 7.45. The tissue was minced with a screen, and was then homogenized with 3 consecutive 5 sec bursts of a Polytron (Brinkman Instruments, Inc., Westbury, NY) at a setting of 11. The homogenate was then centrifuged at 1085×g for 20 min. The pellet was resuspended and recentrifuged twice. The final suspension was filtered through four layers of gauze. Adenylate cyclase was assayed by the method of Salomon et al., Anal. Biochem. (1974) 58:541 as modified by Bristow et al., Mol Pharmacol. (1982) 21:671. Enzyme protein (75-250 μg) was added to a reaction mixture that consisted of 0.1 mM Mg ATP, 0.5 mM MgCl2, 10 mM phosphocreatine, 14.5 μg of creatine kinase (1381 U/mg), 100 mM
The final reaction volume before addition of α-^32 P!ATP was 225 μl. Reaction tubes were stored in cryogenic racks (Kryorack, Isolab, Inc. Akron, OH) at 0° C.
The reaction mixture was pre-warmed in a shaking water bath at 30° C. for 5 min after which 25 μl ([…]) of α-^32 P!ATP (250-500 Ci/mM) was added to label the ATP pool. The assay time was 20 min, the time needed for measurable stimulation of adenylate cyclase. The ^32 P reaction was stopped by the addition of 750 μl of 1% sodium dodecysulfate. ^32 P-labelled cyclic AMP was then isolated by the dual Dowex-alumina column method of Salomon et al., supra. α-^32 P!ATP (New England Nuclear Corporation, Boston, MA) that gave reagent blanks of 50 cpm was purified on Dowex columns as described by Salomon et al., supra.

Test [5] has as its system natural suppressor cells. The note with it: literature, Khan et al. 1985; listed as histamine; cited from earlier work.
Test [6] has as its system lymphoid cells. Put plainly: Effect of beta adrenergic blockade on cAMP accumulation in lymphoid cells. The note with it: 6×10^-6 M propranolol. It is filed as cell-based.

T1 sequence (P97292 whole entry): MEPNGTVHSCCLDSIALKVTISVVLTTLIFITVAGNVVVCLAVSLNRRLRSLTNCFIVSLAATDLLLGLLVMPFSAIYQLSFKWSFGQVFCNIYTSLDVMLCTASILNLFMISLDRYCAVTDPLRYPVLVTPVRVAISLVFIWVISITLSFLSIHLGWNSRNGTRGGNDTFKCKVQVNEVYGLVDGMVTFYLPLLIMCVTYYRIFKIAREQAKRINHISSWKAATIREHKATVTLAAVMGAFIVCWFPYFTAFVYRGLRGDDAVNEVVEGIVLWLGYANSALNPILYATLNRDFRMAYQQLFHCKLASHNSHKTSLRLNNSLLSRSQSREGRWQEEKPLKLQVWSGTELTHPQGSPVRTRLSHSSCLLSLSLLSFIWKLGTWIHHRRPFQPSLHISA

On to `CN/C(=N/CCSCc1nc[nH]c1C)NC#N` [Cimetidine, reference compound], for which the “Effect on basal activity” value in test [1] (10^-6 M cimetidine) is reported as “did not lower the basal activity”. Further, the “Antagonism by cimetidine (H2 antagonist) of cAMP accumulation” value in test [1] (cimetidine 10^-5 M, compounds 6-8 at 10^-4 M, 9 at 10^-7 M) was “competitively blocked the actions of compounds 6-8 (used at 10^-4 M) and 9 (used at 10^-7 M)”. In addition, the Ki in test [1] (lymphoid cells, read-out: Inhibition constant) fell in the range of 110 to 430 nM. Moreover, the “Effect of antagonist on derivative-enhanced suppression in MLR” value in test [2] (with compound 10, cimetidine 10^-5 M or mepyramine 10^-6 M, four hours at 37° C) is reported as “did not alter the derivative-enhanced suppression”.

`CCCCNC(=O)CCCCC(C)NCCc1c[nH]cn1` (stereo not drawn) [Compound 13]: in test [3], the Relative potency result is given as “Inactive” and the “Activity / potency on NS cells (in words)” value (from here on “Activity / potency”) is given as “impotent as H2 receptor agonists on NS cells”. The “Activity / potency” value in test [3] (listed as compound 13) is “inactive on NS cells; also recorded: nor did they stimulate intracellular accumulation of cAMP”. For the same compound, the “Activity on guinea pig myocardium (in words)” value in test [4] is “stimulated guinea pig myocardium”. In test [1], the “Blockade of histamine mediated accumulation of cAMP” value (“Blockade … of cAMP” for short) was “failed to block histamine mediated accumulation of cAMP”. Besides, in test [2], the “H1 activity in MLR (in words)” value is reported as “no H1 activity”.

Turning to `NCCc1c[nH]cn1` [Histamine, 2-(4'-imidazolinyl)ethylamino], the “Stimulation of adenylate cyclase over base levels” value in test [4] (histamine 10^-5 M) is on record as “threefold stimulation of adenylate cyclase over base levels”. Besides, the “Effect on suppressive ability of NS cells” value in test [5] is listed as “augmented the suppressive capacity of NS cells via H1 receptors”.

As for `CCCCCC(C)NCCc1c[nH]cn1` (stereo not drawn) [Compound 2], in test [3], the Relative potency result was “Inactive” and the “Activity / potency” value is listed as “impotent as H2 receptor agonists on NS cells”. Besides, the “Activity / potency” value in test [3] (listed as compound 2) is “inactive; also recorded: nor did they stimulate intracellular accumulation of cAMP”. For the same compound, the “Activity on guinea pig myocardium (in words)” value in test [4] was “completely inactive”. Moreover, the “Blockade … of cAMP” value in test [1] is on record as “failed to block histamine mediated accumulation of cAMP”. In test [2], the “H1 activity in MLR (in words)” value is “no H1 activity”.

As for `CC(C)NCC(O)COc1cccc2ccccc12` (stereo not drawn) [Propranolol], the “Effect on histamine-induced intracellular accumulation of cAMP” value in test [6] was “had no effect on histamine-induced intracel accumulation of cAMP”. Besides, in test [6] (10^-5 M isoproterenol), the “Blockade of the effects of isoproterenol” value was “completely blocked the effects of 10^-5 M isoproterenol”.

Regarding `CC(CCCC(=O)Nc1ccc(C(F)(F)F)cc1)NCCc1c[nH]cn1` (stereo not drawn) [Compound 10], the Relative potency entry in test [3] was “Inactive”. Also, the “Activity / potency” value in test [3] is listed as “lost all H2 activity”. The “Activity on guinea pig myocardium (in words)” value in test [4] was “no effect on the guinea pig myocardium”. Moreover, the “H1 activity in MLR (in words)” value is “only H1 agonistic action” in test [2] and “appeared to be a specific H1 receptor agonist” in test [2] (listed as compound 10).

With `CC(CCCCC(=O)Nc1ccccc1C(F)(F)F)NCCc1c[nH]cn1` (stereo not drawn) [Compound 11], in test [3], the Relative potency result is reported as “Inactive” and the “Activity / potency” value is “impotent as H2 receptor agonists on NS cells”. In test [3] (listed as compound 11), the “Activity / potency” value was “nullified both detectable H1 and H2 activity”. For the same compound, in test [1], the “Blockade … of cAMP” value is given as “failed to block histamine mediated accumulation of cAMP”. For the same compound, the “H1 activity in MLR (in words)” value in test [2] is “nullified both detectable H1 and H2 activity”.

With `CCCCCC(=O)NCCc1c[nH]cn1` [Compound 3, N-Hexamido-4-2'-aminoethyl!imidazole], in test [3], the Relative potency entry is “Inactive” and the “Activity / potency” value was “impotent as H2 receptor agonists on NS cells”. Besides, the “Activity / potency” value in test [3] (listed as compound 3) is “inactive; also recorded: Neither an aliphatic amide derivative of histamine (compound 3) nor the dipeptide conjugate of histamine (compound 12) altered intracellular cAMP; also recorded: nor did they stimulate intracellular accumulation of cAMP”. For the same compound, the “Activity on guinea pig myocardium (in words)” value in test [4] was “completely inactive”. The “Blockade … of cAMP” value in test [1] was “failed to block histamine mediated accumulation of cAMP”. For the same compound, the “H1 activity in MLR (in words)” value in test [2] is “no H1 activity”.
